Test results taken from patent US20090093069A1, “Topiramate Immunoassays” (ARK Diagnostics, Inc., priority 2007, published 2009).
Read-outs that look alike come from different tables or passages of the source.

How the values were obtained:
[1] = cited from earlier work; for mean topiramate serum concentration: Lhatoo et al. (2000); for topiramate concentrations: May et al. (2002)
[2] = cited from earlier work
[3] = test system: patients with drug refractory (mostly partial) epilepsy; details: Stephen et al. (2000), 170 patients, cited from earlier work
[4] = test system: rabbit polyclonal antibody #11341; assay: ARK homogeneous enzyme immunoassay, topiramate calibration curve on HITACHI 917; assay type: binding; details: conjugate 12-G6PDH
Experimental: Rabbit polyclonal antibody […] was used to generate a calibration curve, and evaluate assay precision, accuracy and specificity. The antibody was added into the antibody diluent to prepare the antibody reagent. The antibody reagent consists of antibody as prepared above, buffer, stabilizers, preservatives, and the substrates for the enzyme conjugate NAD and glucose 6 phosphate. Enzyme conjugate comprising compound (12-G6PDH) G6PDH was added into the conjugate reagent to prepare the enzyme conjugate reagent. The enzyme conjugate reagent consists of the conjugate, buffer, stabilizers and preservatives. Enzyme conjugate (12-G6PDH) was used with rabbit polyclonal antibody #11341 in examples below. This technique is generally applicable to produce polyclonal antibodies to diacetonefructose derivatives and assess their utility.
The diacetonefructose derivative antibodies and enzyme conjugates may be advantageously used in a homogeneous assay format to detect topiramate in samples. An enzyme immunoassay or ARK Assay, which is a homogeneous enzyme immunoassay experiment, is performed to test the polyclonal antibodies prepared as in Example 17. The ARK Assay for topiramate is conducted using a liquid, ready-to-use, two-reagent kit. A clinical chemistry analyzer useful to set up the assay is HITACHI 917. The HITACHI 917 is an automated biochemistry analyser used by medical laboratories to process biological fluid specimens, such as urine, cerebrospinal fluid, and most commonly, blood. Manufactured by Boehringer Mannheim, the HITACHI 917 is a commonly used routine chemical bichromatic analyzer. Topiramate containing sample is incubated with antibody reagent followed by the addition of the enzyme conjugate reagent. The enzyme conjugate activity decreases upon binding to the antibody. The enzyme conjugate, which is not bound to the antibody, catalyzes the oxidation of glucose 6-phosphate (G6P). The oxidation of G6P is coupled with the reduction of NAD^+ to NADH, which can be measured at 340 nm. The change in the absorbance at 340 nm can be measured spectrophotometrically. The topiramate concentration in a specimen can be measured in terms of G6PDH activity. The increase in the rate at 340 nm is due to the formation of NADH and is proportional to the enzyme conjugate activity. An assay calibration curve is generated using topiramate spiked into negative calibrator matrix (See Example 19 below). The assay rate increases with increasing the concentration of drug in the sample.
Topiramate was dissolved in methanol to give a stock solution of 1000 μg/mL. Pooled human serum was aliquoted in 10 mL portions. Topiramate stock solution was added to the aliquots of human serum in preparing a series of known concentrations of topiramate calibrators ranging from 0 to 60 μg/mL. Similarly, Quality Control samples were prepared (2.0, 10.0 and 40.0 μg/mL). Antibody Reagent was prepared by adding antibody […] to antibody/substrate diluent. The antibody/substrate reagent was assayed with Enzyme Conjugate Reagent (12-G6PDH). Calibration curves were generated on the HITACHI 917 automated clinical chemistry analyzer, as described in Example 18 by assaying each level in duplicate.

serum proteins = details: cited from earlier work
[5] = test system: antibodies raised with immunogens (10-KLH, 12-KLH, 12-L-KLH, 19-KLH, 22-KLH and 25-KLH); assay: Enzyme-based assay format, reactivity of antibodies raised with the immunogens; assay type: binding
Excerpt: All the prepared haptens have utility for KLH and G6PDH bio-conjugation. immunogens (10-KLH, 12-KLH, 12-L-KLH, 19-KLH, 22-KLH and 25-KLH) were used to raise antibodies.

[6] = dose escalation add-on studies, morning serum concentrations

CC1(C)O[C@@H]2[C@@H](CO[C@@]3(COS(N)(=O)=O)OC(C)(C)O[C@@H]23)O1 [Topiramate, 2,3:4,5-bis-O-(1-methylethylidene)-β-D-fructopyranose sulfamate]
serum concentrations at which optimal response is most likely ([1]; Christensen et al. (2003), concentration-controlled trial): 2000 to 10000 ng/mL
serum topiramate concentrations ([1]; Johannessen et al. (2003), patients treated with therapeutic doses, most studies): 5 to 20 mg/L
mean topiramate serum concentration ([1]; patients in whom topiramate was stopped because of adverse effects): 6 mg/L
mean topiramate serum concentration ([1]; responders): 7 mg/L
mean topiramate serum concentration ([1]; seizure-free patients): 9 mg/L
topiramate concentrations ([1]; considerably higher doses (up to 2000 mg/day)): ≤ 27 mg/L
topiramate concentrations ([1]; doses of 125-400 mg in addition to other AEDs): 2.4 to 8 mg/L
serum topiramate concentrations in patients with improvement (trend) ([1]; Penovich et al. (1997), compared with those without seizure reduction): > 10 mg/L
systemic topiramate concentrations ([1]; considerably higher doses, up to 2000 mg): ≤ 80 µmol·L
serum concentrations at which a reduction in seizure control was seen [1, 6]: greater than 75 μmol/L
serum concentrations with significant increase in side effects [1, 6]: > 60 µM
change of serum topiramate concentrations ([2]; clearance decreased by propranolol, amitriptyline, lithium, and sumatriptan): slightly increased
Tmax ([2]; following oral ingestion): 2 to 4 h
bioavailability ([2]; following oral ingestion): 81-95%
Vd ([2]; human, in vivo): 0.6 to 1 L/kg
fraction of the dose metabolized ([2]; human, in vivo): Approximately 50%
serum half-life ([2]; human, in vivo): 20 to 30 h
half-life ([2]; patients co-prescribed enzyme-inducing AEDs): about 12 h
lowering of topiramate concentrations ([2]; with valproic acid): 10-15%
patients with favorable response ([3]; wide range of doses and serum concentrations): 70%
patients becoming seizure-free [3]: 23%
Reaction Rate (mA/min) Average of Duplicates ([4]; topiramate calibrator 3.5 μg/mL in human serum): 406.0 mA/min
Reaction Rate (mA/min) Average of Duplicates ([4]; topiramate calibrator 7.5 μg/mL in human serum): 442.4 mA/min
Reaction Rate (mA/min) Average of Duplicates ([4]; topiramate calibrator 15.0 μg/mL in human serum): 478.3 mA/min
Reaction Rate (mA/min) Average of Duplicates ([4]; topiramate calibrator 30.0 μg/mL in human serum): 511.6 mA/min
Reaction Rate (mA/min) Average of Duplicates ([4]; topiramate calibrator 60.0 μg/mL in human serum): 542.4 mA/min
bound to serum proteins (serum proteins): 15%
reactivity of the antibodies [5]: good reactivity
